Entries after “also recorded” stand apart in the source; their conditions may differ.

Data set [1] in a line: Plasma stability. The format is in vitro ADME, mouse. Particulars: mouse plasma. As for the experimental part: Incubations of test compound (5 µM initial concentration, n = 2) were carried out with pooled mouse plasma or BSA (45 mg/mL in 0.1 M phosphate buffered saline). The incubations were performed at 37°C. Samples (50 µL) were obtained from the incubation at 0, 10, 30, 120, 240, 360 and 1440 min, and added to 150 µL of acetonitrile containing carbamazepine as analytical internal standard to terminate the reaction. Samples were centrifuged and the supernatant fractions analysed by LC-MS/MS.
For half-life determinations, the instrument responses (peak areas) normalized for internal standard response, were referenced to the zero time-point samples (as 100%) in order to determine the percentage of compound remaining. Ln plots of the % remaining, for each compound, were used to determine the half-life for the plasma incubations. Half-life values were calculated from the relationship:-. [drawing 1] Where λ was the slope of the natural logarithmic (Ln) concentration vs time curve.
When quantification was required, calibration standards for parent compound and metabolites were prepared in control plasma and extracted and analysed as described for the study samples. Quantification of parent compound or metabolite was by extrapolation from the calibration line.

Data set [2] has as its system HDACs. The experiment in a line: Biochemical HDAC assays (whole panel). The arrangement: species or system human. To be noted: up to 50 µM. The source says: To assess the biochemical and cellular potency of 4b and its conversion products/metabolites, we utilized the two-step fluorogenic assay which measures the HDAC-mediated catalytic conversion of synthetic acetylated lysine substrates. In brief, on deacetylation of the substrates by HDAC activity, a protease site is unmasked which allows subsequent trypsin-mediated cleavage and release of the highly flourescent AMC molecules in a subsequent step of the assay. The substrates used were Lys_Ac_AMC (Bachem I-1875) for HDAC3 and (Ac)Arg-Gly-Lys(Ac) (Bachem I-1925) for HDAC1 and HDAC2. […] However, the relatively labile and sterically more demanding trifluoracetyl group is readily hydrolyzed by the catalytically less avid Class IIa enzymes, allowing measurement of Class IIa activity using the 2-step fluorogenic assay. […]
For evaluation of the class selectivity of the compounds, we assessed inhibition against purified recombinant human full length HDAC1 (cat# 50051), HDAC2 (cat# 50052), HDAC3-NcoR2 (cat# 50003) and HDAC8 (cat# 50008): as representative of Class I activity; catalytic domain HDAC4(αα 648–1057), HDAC5 (αα 657–1123; cat # 50005), HDAC7 (αα 518-end; cat # 50007) and HDAC9 (αα 604–1066; cat # 50009) activity: representing all Class IIa activity; and full length HDAC6 (cat#50006): representing Class IIb activity. […]

Data set [3] has as its system endogenous Class I HDACs/HDAC6. The experiment in a line: Cellular HDAC assay, Boc_Lys_Ac substrate, Jurkat E6.1 cells. The format is cell-based. To be noted: up to 50 µM; 5 h incubation. As for the experimental part: Briefly, Jurkat E6.1 cells (obtained from the European Collection of Cell Cultures (ECACC)) were plated into 384 well plates at 75,000 cells/well in cellular assay buffer (RPMI without phenol red, 0.1% Fetal Bovine Serum, 10 mM HEPES, 1 mM Sodium Pyruvate). […] Fluorescent counts were read the following morning on the Perkin Elmer EnVision.
Each compound was tested in duplicate in concentration-response format on 3 separate days. […] A full dose response of reference compound was always included alongside the profiling, to ensure that assay parameters remained within acceptable limits.

The nature of data set [4]: Hepatic microsomal stability. The data set is classed as in vitro ADME, mouse. To be noted: mouse hepatic microsomes; parent 4b. As for the experimental part:
Incubations of test compounds (1 µM initial concentration, n = 2) were carried out with pooled hepatic microsomes (0.25 mg protein/mL in 0.1 M phosphate buffer pH 7.4). NADPH (1 mM) was added to initiate the reactions. The incubations were performed at 37°C. Samples (100 µL) were taken from the incubation at 0, 5, 10, 20 and 40 min and added to 100 µL of acetonitrile containing carbamazepine as analytical internal standard, to terminate the reaction. Samples were centrifuged and the supernatant fractions analysed by LC-MS/MS. The instrument responses (i.e. chromatographic peak heights), normalized by internal standard response were referenced to the zero time-point samples (as 100%) in order to determine the percentage of compound remaining.
Ln plots of the % remaining, for each compound, were used to determine the half-life for the microsomal incubations.
Half-life values were calculated from the relationship. [drawing 2] where λ was the slope of the Ln concentration vs time curve.
The in vitro intrinsic clearance, CLint (µL/min/mg microsomal protein), was calculated using the following formula: [drawing 3]
When quantification was required, calibration standards for parent compound and metabolites were prepared in control hepatic microsomes and extracted and analysed as described for the study samples. Quantification of parent compound or metabolite was by extrapolation from the calibration line.

For data set [5], the target named is T1, HDAC3-NcoR2 (Homo sapiens, UniProt O15379).
T1 construct: purified recombinant human full length HDAC1 (cat# 50051), HDAC2 (cat# 50052), HDAC3-NcoR2 (cat# 50003); purchased BPS Bioscience (San Diego, CA) 50003
T1 sequence (O15379 whole entry): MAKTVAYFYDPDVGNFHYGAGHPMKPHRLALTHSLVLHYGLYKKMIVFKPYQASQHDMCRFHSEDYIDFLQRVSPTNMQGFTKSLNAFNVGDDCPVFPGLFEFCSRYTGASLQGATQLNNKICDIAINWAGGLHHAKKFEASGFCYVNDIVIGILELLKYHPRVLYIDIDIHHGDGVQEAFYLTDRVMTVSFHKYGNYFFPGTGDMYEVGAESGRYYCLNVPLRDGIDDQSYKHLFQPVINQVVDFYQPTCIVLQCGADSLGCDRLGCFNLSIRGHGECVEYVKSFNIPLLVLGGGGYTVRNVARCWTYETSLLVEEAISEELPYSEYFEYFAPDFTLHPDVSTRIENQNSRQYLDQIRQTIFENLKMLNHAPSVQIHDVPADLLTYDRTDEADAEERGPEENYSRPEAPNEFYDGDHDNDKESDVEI
T1 sequence (Q9Y618 395-489 partner limits assumed): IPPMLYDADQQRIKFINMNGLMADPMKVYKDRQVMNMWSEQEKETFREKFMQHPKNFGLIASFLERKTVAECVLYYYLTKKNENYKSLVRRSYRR
The experiment in a line: Two-step fluorogenic deacetylase assay, recombinant HDAC3. To be noted: standard 1 h pre-incubation conditions. The data set is classed as biochemical. How it is done: As described, the length of compound-enzyme incubation has been reported to be critical for this class of HDAC inhibitors, where a unique time-dependent increase in affinity and subsequent potency has been observed [36]–[38]. […] To better mimic physiological conditions, our experiments were performed at 37°C as opposed to room temperature as reported in previous studies. […] To confirm that this shift was independent of the time of 4b in aqueous solution, 4b was applied immediately to the enzyme-substrate mix both after preparing in aqueous buffer, and 120 min after preparation.
To assess the biochemical and cellular potency of 4b and its conversion products/metabolites, we utilized the two-step fluorogenic assay which measures the HDAC-mediated catalytic conversion of synthetic acetylated lysine substrates. In brief, on deacetylation of the substrates by HDAC activity, a protease site is unmasked which allows subsequent trypsin-mediated cleavage and release of the highly flourescent AMC molecules in a subsequent step of the assay. The substrates used were Lys_Ac_AMC (Bachem I-1875) for HDAC3 and (Ac)Arg-Gly-Lys(Ac) (Bachem I-1925) for HDAC1 and HDAC2. The final substrates used for each enzyme assessment were carefully selected after assessing the catalytic turnover of each of these substrates against HDAC1, HDAC2 and HDAC3 respectively, and selecting the ones that performed best. To assess Class IIa enzyme activity (HDAC4, 5, 7, 9) and Class I HDAC8 activity, we used the alternative substrate Boc_Lys_TFA (Bachem I-1985), equivalent to substrate 4 of [42]. Class IIa HDACs have approximately 1000-fold less catalytic activity than Class 1 enzymes, and show only extremely low turnover of acetylated substrates due to a Tyr to His mutation in the active site. However, the relatively labile and sterically more demanding trifluoracetyl group is readily hydrolyzed by the catalytically less avid Class IIa enzymes, allowing measurement of Class IIa activity using the 2-step fluorogenic assay. Intriguingly the Boc_Lys_TFA substrate seems to show almost total selectivity for Class IIa enzymes over class I and Class IIb enzymes, with the exception of HDAC8 ([42], and internal data).
For evaluation of the class selectivity of the compounds, we assessed inhibition against purified recombinant human full length HDAC1 (cat# 50051), HDAC2 (cat# 50052), HDAC3-NcoR2 (cat# 50003) and HDAC8 (cat# 50008): as representative of Class I activity; catalytic domain HDAC4(αα 648–1057), HDAC5 (αα 657–1123; cat # 50005), HDAC7 (αα 518-end; cat # 50007) and HDAC9 (αα 604–1066; cat # 50009) activity: representing all Class IIa activity; and full length HDAC6 (cat#50006): representing Class IIb activity. With the exception of purified catalytic domain HDAC4, which was prepared for us by Emerald Biosciences (Seattle, WA), all HDAC enzymes were purchased from BPS Bioscience (San Diego, CA).
Unless otherwise stated in the text, assays were run in the following format in 384-well plates using automated liquid handling procedures. Briefly, frozen enzyme stock and compounds were diluted in assay buffer (50 mM Tris-HCl, 137 mM NaCl, 2.7 mM KCl, 1 mM MgCl2 at pH 8.0) and added to plates at concentrations sufficient to achieve a 16-point concentration-response curve from 50 µM to 1 nM at 1% DMSO final concentration, after addition of all reagents. Substrate diluted in assay buffer was then added and plates were incubated after brief shaking for 60 min at 37°C. Following incubation, a developer/stop-step was introduced to terminate the reaction and cleave the fluorescent substrate: either the addition of trypsin with 10 µM Compound 26 [44] for the Class IIa enzymes, or trypsin with 5 µM Trichostatin A (TSA) for the Class I/IIb enzymes. Plates were briefly shaken and then returned to the incubator for a further 60 min, followed by measurement of fluorescence per well (Ex 355 nm, Em 460 nm) on a Perkin Elmer EnVision. […]

In data set [6] the test system is FXN. The arrangement: method as in PMID 16921367. Particulars: at the concentration tested; cited from earlier work.
Data set [7] is described as follows: Chemical stability in formulation or solution. The data set is classed as physicochemical. As for the experimental part:
Thomas and colleagues reported that a solution of 4b at 1 mg/mL was previously obtained using this procedure. […] We therefore prepared both TFA and hydrochloride (HCl) salts of 4b to establish whether they could offer improved solubility. Neither salt form of 4b was particularly soluble in water (<1 mg/ml). […] A study of the stability of the TFA salt also raised another more worrying issue in the use of 2-hydroxypropyl-β-cyclodextrin–complexed 4b salts for potential in vivo studies. […] The 4b. […] The lower than expected initial quantification of 4b was most likely due to the TFA salt rapidly degrading upon heating. Indeed, we always found the presence of the cyclised benzimidazole conversion product, named throughout as product C1, in the salt formulations even at t = 0 after preparation. Furthermore, the suspension was not stable upon standing in the dark with gentle shaking at room temperature, with a further 28% decrease observed in parent (4b) concentration on day 7 analysis, compared to day 1.
According to Thomas et al, verification of an acute pharmacodynamic response (the reversal of transcriptional dysregulation in the R6/2 model) was achieved by the repeated once daily injection of 150 mg/kg 4b in 50∶50 DMSO: PBS for three consecutive days. […] The lack of any pharmacodynamic response predictive of central Class I HDAC inhibition when 4b was dosed orally at 150 mg/kg twice daily for 5 days confirmed this prediction.

A short description of data set [8]: Solubility in water, formulations and DMSO. The data set is classed as physicochemical. Particulars: cyclodextrin formulation prepared without heating.
The nature of data set [9]: Solubility in water, formulations and DMSO. The format is physicochemical. How it is done:
Thomas and colleagues reported that a solution of 4b at 1 mg/mL was previously obtained using this procedure. […] We therefore prepared both TFA and hydrochloride (HCl) salts of 4b to establish whether they could offer improved solubility. Neither salt form of 4b was particularly soluble in water (<1 mg/ml). […] A study of the stability of the TFA salt also raised another more worrying issue in the use of 2-hydroxypropyl-β-cyclodextrin–complexed 4b salts for potential in vivo studies. […] The 4b. TFA cyclodextrin suspension targeted at 1 mg/ml with heating gave an initial (day 1) measured value of 0.75 mg/ml total 4b, with only 0.27 mg/mL solubilised as quantified in the sample after filtration. The lower than expected initial quantification of 4b was most likely due to the TFA salt rapidly degrading upon heating. Indeed, we always found the presence of the cyclised benzimidazole conversion product, named throughout as product C1, in the salt formulations even at t = 0 after preparation. Furthermore, the suspension was not stable upon standing in the dark with gentle shaking at room temperature, with a further 28% decrease observed in parent (4b) concentration on day 7 analysis, compared to day 1.
As a consequence de novo formulation attempts were made with the stable free base form. After several trials with different excipients, we were able to reach a soluble formulation preparation of 1 mg/ml 4b in 2% N-methyl-2-pyrollidone, 18% polyethylene glycol 400, 10% solutol HS-15 and 70% (1% Lutrol F68 in water), a vehicle which we have previously used without any adverse effects in R6/2 model chronic efficacy trials, but is unlikely to be palatable to mice in drinking water. With this concentration, a single oral gavage dose will result in a maximum of 10 mg/kg dose level (assuming a maximum dose volume of […]), considerably lower than that estimated to have been used by Thomas et al (150 mg/kg day in drinking water). In an attempt to replicate the original dose level as close as possible, it became necessary to formulate the test compound in suspension. We achieved a stable homogeneous suspension of free base 4b up to 100 mg/ml in 0.5% carboxymethylcellulose (medium viscosity) in reverse osmosis deionized (RODI) water. This suspension was used to evaluate the oral pharmacokinetics of 4b in mice. […]

Setting [10] is: cyclodextrin suspension targeted at 1 mg/ml, with heating.

`O=C(O)CCCCCc1nc2ccccc2[nH]1` [Compound M3]: the “share of the metabolism of parent accounted for by metabolite” value in data set [1] (parent C1) was 80%. In addition, the “activity in the biochemical HDAC assays” value in data set [2] is “inactive”. For the same compound, the “activity in the Class I cellular HDAC (Boc_Lys_Ac) assay” value in data set [3] was “inactive”.

For orientation: IC50 means the midpoint of a concentration-inhibition curve. Regarding `Nc1ccccc1NC(=O)CCCCCC(=O)O` [Compound M1], the results for the “share of the metabolism of parent accounted for by metabolite” value in data set [1] (parent 4b) and in [4] were 78% and 42%, respectively. Besides, the IC50 in data set [5] turned out to be 26 µM. In [3], the “activity in the Class I cellular HDAC (Boc_Lys_Ac) assay” value was “totally inactive; also recorded: neither inhibits HDACs”.

Consider BML-210 [reference compound], for which the “effect on FXN mRNA” value in [6] is listed as “increase FXN mRNA without cytotoxicity”.

Consider `Cc1ccc(NC(=O)CCCCCC(=O)Nc2ccccc2N)cc1.O=C(O)C(F)(F)F` [4b. TFA], for which the “day 7 value as % of value at day 1” value in data set [7] (1 mg/ml in DMSO) is reported as 59%. Further, in data set [7] (cyclodextrin suspension, dark, gentle shaking, room temperature), the “decrease in parent (4b) concentration, day 7 compared to day 1” value was 28%. Moreover, the “cyclisation to benzimidazole product in solution” value in data set [7] (eg. aqueous acetonitrile, ambient temperature, more rapidly when heated) is on record as “cyclised slowly”. For the same compound, the “4b dissolved (filtrate of suspension)” value in data set [8] stood at 0.3 mg/mL. Further, in data set [9] (setting [10]), the “4b solubilised (after filtration), day 1” value turned out to be 0.27 mg/mL and the “total 4b measured in suspension, day 1” value stood at 0.75 mg/mL. The “solubility in DMSO” value in [9] (prepared at 1 mg/ml) is reported as “soluble”. The solubility in water in [9] (salt forms) was less than 1 mg/mL.

Values taken from publication PMC3433414, “Oral Administration of the Pimelic Diphenylamide HDAC Inhibitor HDACi 4b Is Unsuitable for Chronic Inhibition of HDAC Activity in the CNS In Vivo” (PLoS ONE, 2012).
